# Patent US20240016942A1, “STAT DEGRADERS AND USES THEREOF” (Kymera Therapeutics, Inc., priority 2020, published 2024)
# Like-named read-outs stand apart in the source and are kept apart here.
# Target: T1, STAT3 (Homo sapiens, UniProt P40763)
# T1 construct: expressed in transfected cells; host or cells: A549
# Assay: STAT3 HiBiT degradation assay (Nano-Glo HiBiT lytic detection) in transfected A549 cells
# Type: cell-based
# In short: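 Transfected A549 cells (~2000/well) treated 24 h at 37° C with compound in 3-fold, 10-point dilution series. HiBiT-tagged STAT3 remaining measured by Nano-Glo HiBiT lytic luminescence, normalised to negative and positive controls; DC50 from four-parameter curve fit.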
# [1] = read-out: STAT3 HiBIT A549 degradation 24 h: Average external-Abs DC50, 24 h compound incubation
# [2] = 24 h compound incubation, read-out: STAT3 HiBIT A549 degradation 24 h: Average external-Abs DC50
# T1 sequence (P40763 whole entry): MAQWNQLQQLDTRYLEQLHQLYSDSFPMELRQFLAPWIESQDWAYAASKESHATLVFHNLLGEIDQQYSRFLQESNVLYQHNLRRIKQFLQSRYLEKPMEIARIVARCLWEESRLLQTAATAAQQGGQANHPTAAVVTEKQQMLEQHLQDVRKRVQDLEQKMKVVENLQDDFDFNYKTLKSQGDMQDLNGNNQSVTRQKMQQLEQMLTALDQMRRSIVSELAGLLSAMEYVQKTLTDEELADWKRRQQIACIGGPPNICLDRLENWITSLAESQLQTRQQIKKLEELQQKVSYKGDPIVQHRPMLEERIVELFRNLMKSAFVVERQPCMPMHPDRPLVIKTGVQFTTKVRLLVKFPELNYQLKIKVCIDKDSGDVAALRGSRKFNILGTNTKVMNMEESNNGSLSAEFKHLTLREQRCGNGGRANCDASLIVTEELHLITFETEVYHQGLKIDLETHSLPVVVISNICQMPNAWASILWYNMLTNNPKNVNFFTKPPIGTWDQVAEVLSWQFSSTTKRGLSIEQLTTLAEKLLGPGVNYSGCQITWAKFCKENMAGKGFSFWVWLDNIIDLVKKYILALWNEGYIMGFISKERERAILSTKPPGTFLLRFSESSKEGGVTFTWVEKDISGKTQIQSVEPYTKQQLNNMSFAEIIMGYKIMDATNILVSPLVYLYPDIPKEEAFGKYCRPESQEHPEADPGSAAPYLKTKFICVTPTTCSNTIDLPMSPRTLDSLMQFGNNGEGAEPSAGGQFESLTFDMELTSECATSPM
structure (smiles),measurement,setting,value
COC(=O)N1CC[C@H]2CC[C@@H](C(=O)N[C@@H](CCC(N)=O)COc3cccc(CCCC(=O)N[C@H](C(=O)N4C[C@H](O)C[C@H]4C(=O)N[C@@H](C)c4ccc(-c5scnc5C)cc4)C(C)(C)C)c3Cl)N2C(=O)[C@@H](NC(=O)c2cc3cc(C(=O)P(=O)(O)O)ccc3s2)C1 [I-86],DC50,[1],> 1000 nM
Cc1ncsc1-c1ccc(CNC(=O)[C@@H]2C[C@@H](O)CN2C(=O)[C@@H](c2cc(OCCCc3cccc(OC[C@H](CCC(N)=O)NC(=O)[C@@H]4Cc5cccc6c5N4C(=O)[C@@H](NC(=O)c4cc5cc(C(=O)P(=O)(O)O)ccc5[nH]4)CC6)c3Cl)no2)C(C)C)cc1 [I-63],DC50,[2],< 10 nM
Cc1ncsc1-c1ccc([C@H](C)NC(=O)[C@@H]2C[C@@H](O)CN2C(=O)[C@@H](NC(=O)CCCc2cccc(OC[C@H](CCC(N)=O)NC(=O)[C@@H]3CC[C@@H]4CCCC[C@H](NC(=O)c5cc6cc(C(=O)P(=O)(O)O)ccc6[nH]5)C(=O)N43)c2Cl)C(C)(C)C)cc1 [I-2],DC50,[2],< 10 nM
Cc1ncsc1-c1ccc(C2(NC(=O)[C@@H]3C[C@@H](O)CN3C(=O)[C@@H](NC(=O)CCCCc3cccc(OC[C@H](CCC(N)=O)NC(=O)[C@@H]4CC[C@@H]5CCCC[C@H](NC(=O)c6cc7cc(C(=O)P(=O)(O)O)ccc7[nH]6)C(=O)N54)c3Cl)C(C)(C)C)CC2)cc1 [I-10],DC50,[2],< 10 nM
Cc1ncsc1-c1ccc([C@H](C)NC(=O)[C@@H]2C[C@@H](O)CN2C(=O)[C@@H](NC(=O)CCCc2cccc(OC[C@H](CCC(N)=O)NC(=O)[C@@H]3CC[C@@H]4CCCC[C@H](NC(=O)c5cc6cc(C(=O)P(=O)(O)O)ccc6[nH]5)C(=O)N43)c2F)C(C)(C)C)cc1 [I-9],DC50,[2],< 10 nM
CC(=O)N1CC[C@H]2CC[C@@H](C(=O)N[C@@H](CCC(N)=O)COc3cc(F)cc(CCCC(=O)N[C@H](C(=O)N4C[C@H](O)C[C@H]4C(=O)N[C@@H](C)c4ccc(-c5scnc5C)cc4)C(C)(C)C)c3Cl)N2C(=O)[C@@H](NC(=O)c2cc3cc(C(=O)P(=O)(O)O)ccc3[nH]2)C1 [I-77],DC50,[2],< 10 nM
Cn1c(=O)n(C2CCC(=O)NC2=O)c2ccc(C[C@H]3CC[C@@H](CC(=O)N4CC[C@H]5CC[C@@H](C(=O)N[C@@H](CCC(N)=O)COc6cccc(S(C)(=O)=O)c6)N5C(=O)[C@@H](NC(=O)c5cc6cc(C(=O)P(=O)(O)O)ccc6[nH]5)C4)CC3)cc21 (stereo partly shown) [I-51],DC50,[2],10 to 100 nM
"Cn1c(=O)n(C2CCC(=O)NC2=O)c2ccc(C[C@H]3CC[C@@H](CC(=O)N4CC[C@H]5CC[C@@H](C(=O)N[C@@H](CCC(N)=O)C(=O)NCc6ccc(S(C)(=O)=O)cc6)N5C(=O)[C@@H](NC(=O)c5cc6cc(C(=O)O)ccc6[nH]5)C4)CC3)cc21 (stereo partly drawn) [I-75, 2-[[(5S,8S,10aR)-8-[[(1S)-3-carbamoyl-1-[[(4-methanesulfonylphenyl)methyl]carbamoyl]propyl]carbamoyl]-6-oxo-3-[2-[(1s,4s)-4-[[1-(2,6-dioxopiperidin-3-yl)-3-methyl-2-oxo-1,3-benzodiazol-5-yl]methyl]cyclohexyl]acetyl]-octahydropyrrolo[1,2-a][1,5]diazocin-5-yl]carbamoyl]-1H-indole-5-carboxylic acid]",DC50,[2],> 1000 nM
Cc1ncsc1-c1ccc([C@H](C)NC(=O)[C@@H]2C[C@@H](O)CN2C(=O)[C@@H](NC(=O)CCCCc2cccc(OC[C@H](CCC(N)=O)NC(=O)[C@@H]3CC[C@@H]4CCCC[C@H](NC(=O)c5cc6cc(C(=O)P(=O)(O)O)ccc6[nH]5)C(=O)N43)c2Cl)C(C)(C)C)cc1 [I-1],DC50,[2],< 10 nM
CC(C)c1ccc(CNC(=O)[C@H](CCC(N)=O)NC(=O)[C@@H]2CC[C@@H]3CCN(C(=O)[C@H]4CC[C@@H](CCc5ccc6c(c5)n(C)c(=O)n6C5CCC(=O)NC5=O)CC4)C[C@H](NC(=O)c4cc5cc(C(=O)P(=O)(O)O)ccc5[nH]4)C(=O)N32)c(F)c1 (stereo partly shown) [I-34],DC50,[2],10 to 100 nM
CNC(=O)[C@@H]1Cc2cc(CCCCCCc3ccc4c(c3)n(C)c(=O)n4C3CCC(=O)NC3=O)cc3c2N1C(=O)[C@@H](NC(=O)c1cc2cc(C(=O)P(=O)(O)O)ccc2[nH]1)CC3 (stereo partly shown) [I-20],DC50,[2],> 1000 nM
"Cn1c(=O)n(C2CCC(=O)NC2=O)c2ccc(CCCCCCc3cc4c5c(c3)C[C@@H](C(=O)N[C@@H](CCC(N)=O)C(=O)NCc3ccc(S(C)(=O)=O)cc3)N5C(=O)[C@@H](NC(=O)c3cc5cc(C(=O)P(=O)(O)O)ccc5[nH]3)CC4)cc21 (stereo partly drawn) [I-81, (2-(((3S,6S)-6-(((S)-5-amino-1l-((4-(methylsulfonyl)benzyl)amino)-1,5-dioxopentan-2-yl)carbamoyl)-9-(6-(1-(2,6-dioxopiperidin-3-yl)-3-methyl-2-oxo-2,3-dihydro-1H-benzo[d]imidazol-5-yl)hexyl)-4-oxo-1,2,3,4,6,7-hexahydroazepino[3,2,1-hi]indol-3-yl)carbamoyl)-1H-indole-5-carbonyl)phosphonic acid]",DC50,[2],10 to 100 nM
Cc1ncsc1-c1ccc([C@H](C)NC(=O)[C@@H]2C[C@@H](O)CN2C(=O)[C@@H](NC(=O)CCCc2cccc(OC[C@H](CCC(N)=O)NC(=O)[C@@H]3CC[C@@H]4CCN(C(=O)C(C)C)C[C@H](NC(=O)c5cc6cc(C(=O)P(=O)(O)O)ccc6[nH]5)C(=O)N43)c2Cl)C(C)(C)C)cc1 [I-54],DC50,[2],< 10 nM
Cc1ncsc1-c1ccc([C@H](C)NC(=O)[C@@H]2C[C@@H](O)CN2C(=O)[C@@H](NC(=O)CCCc2cccc(OC[C@H](CCC(N)=O)NC(=O)[C@@H]3CC[C@@H]4CCCC[C@H](NC(=O)c5cc6cc(C(F)(F)P(=O)(O)O)ccc6s5)C(=O)N43)c2Cl)C(C)(C)C)cc1 [I-89],DC50,[1],> 1000 nM
Cc1ncsc1-c1ccc([C@H](C)NC(=O)[C@@H]2C[C@@H](O)CN2C(=O)[C@@H](NC(=O)CCCCCc2cccc(OC[C@H](CCC(N)=O)NC(=O)[C@@H]3CC[C@@H]4CCCC[C@H](NC(=O)c5cc6cc(C(=O)P(=O)(O)O)ccc6[nH]5)C(=O)N43)c2F)C(C)(C)C)cc1 [I-6],DC50,[2],10 to 100 nM
C[C@H](NC(=O)[C@H](CCC(N)=O)NC(=O)[C@@H]1CC[C@@H]2CCN(C(=O)C[C@H]3CC[C@@H](Cc4ccc5c(c4)n(C)c(=O)n5C4CCC(=O)NC4=O)CC3)C[C@H](NC(=O)c3cc4cc(C(=O)P(=O)(O)O)ccc4[nH]3)C(=O)N21)c1ccc(S(C)(=O)=O)cc1 (stereo partly shown) [I-41],DC50,[2],100 to 1000 nM
CC(C)c1ccc(CNC(=O)[C@H](CCC(N)=O)NC(=O)[C@@H]2CC[C@@H]3CCN(C(=O)[C@H]4CC[C@@H](CCc5ccc6c(c5)n(C)c(=O)n6C5CCC(=O)NC5=O)CC4)C[C@H](NC(=O)c4cc5cc(C(=O)P(=O)(O)O)ccc5[nH]4)C(=O)N32)cc1F (stereo partly shown) [I-30],DC50,[2],10 to 100 nM
Cn1c(=O)n(C2CCC(=O)NC2=O)c2ccc(CCCCc3cccc(OC[C@H](CCC(N)=O)NC(=O)[C@@H]4CC[C@@H]5CCCC[C@H](NC(=O)c6cc7cc(C(=O)P(=O)(O)O)ccc7[nH]6)C(=O)N54)c3Cl)cc21 (stereo partly shown) [I-32],DC50,[2],> 1000 nM
Cc1ncsc1-c1ccc([C@H](C)NC(=O)[C@@H]2C[C@@H](O)CN2C(=O)[C@@H](NC(=O)CCCc2cccc(OC[C@H](CCC(N)=O)NC(=O)[C@@H]3CC[C@@H]4CCN(C(=O)C(F)(F)F)C[C@H](NC(=O)c5cc6cc(C(=O)P(=O)(O)O)ccc6[nH]5)C(=O)N43)c2Cl)C(C)(C)C)cc1 [I-66],DC50,[2],< 10 nM
Cn1c(=O)n(C2CCC(=O)NC2=O)c2ccc(CC[C@H]3CC[C@@H](C(=O)N4CC[C@H]5CC[C@@H](C(=O)N[C@@H](CCC(N)=O)c6nc7ccccc7s6)N5C(=O)[C@@H](NC(=O)c5cc6cc(C(=O)P(=O)(O)O)ccc6[nH]5)C4)CC3)cc21 (stereo partly shown) [I-37],DC50,[2],10 to 100 nM
"C[C@H](NC(=O)[C@@H]1Cc2cc(CCCCCCc3ccc4c(c3)n(C)c(=O)n4C3CCC(=O)NC3=O)cc3c2N1C(=O)[C@@H](NC(=O)c1cc2cc(C(=O)P(=O)(O)O)ccc2[nH]1)CC3)C(=O)NCc1ccc(S(C)(=O)=O)cc1 (stereo partly drawn) [I-65, 2-[[(2S,11S)-6-[6-[1-(2,6-dioxopiperidin-3-yl)-3-methyl-2-oxo-1,3-benzodiazol-5-yl]hexyl]-2-[[(1S)-1-[[(4-methanesulfonylphenyl)methyl]carbamoyl]ethyl]carbamoyl]-12-oxo-1-azatricyclo[6.4.1.0^[4,13]]trideca-4(13),5,7-trien-11-yl]carbamoyl]-1H-indole-5-carbonylphosphonic acid]",DC50,[2],> 1000 nM
Cn1c(=O)n(C2CCC(=O)NC2=O)c2ccc(CCCCCc3cccc(OC[C@H](CCC(N)=O)NC(=O)[C@@H]4CC[C@@H]5CCCC[C@H](NC(=O)c6cc7cc(C(=O)P(=O)(O)O)ccc7[nH]6)C(=O)N54)c3Cl)cc21 (stereo partly shown) [I-28],DC50,[2],100 to 1000 nM
"CN(C)C(=O)[C@@H]1Cc2cc(CCCCCCc3ccc4c(c3)n(C)c(=O)n4C3CCC(=O)NC3=O)cc3c2N1C(=O)[C@@H](NC(=O)c1cc2cc(C(=O)P(=O)(O)O)ccc2[nH]1)CC3 (stereo partly drawn) [I-25, 2-[[(2S, 11S)-2-(dimethylcarbamoyl)-6-[6-[1-(2,6-dioxopiperidin-3-yl)-3-methyl-2-oxo-1,3-benzodiazol-5-yl]hexyl]-12-oxo-1-azatricyclo [6.4.1.0^[4, 13]]trideca-4(13), 5,7-trien-11-yl]carbamoyl]-1H-indole-5-carbonylphosphonic acid]",DC50,[2],> 1000 nM
C[C@H](CCC(=O)N(C)C)NC(=O)[C@@H]1Cc2cc(CCCCCCc3ccc4c(c3)n(C)c(=O)n4C3CCC(=O)NC3=O)cc3c2N1C(=O)[C@@H](NC(=O)c1cc2cc(C(=O)P(=O)(O)O)ccc2[nH]1)CC3 (stereo partly shown) [I-21],DC50,[2],> 1000 nM
"CC(C)c1ccc(CNC(=O)[C@H](CCC(N)=O)NC(=O)[C@@H]2CC[C@@H]3CCN(C(=O)[C@H]4CC[C@@H](CCc5ccc6c(c5)n(C)c(=O)n6C5CCC(=O)NC5=O)CC4)C[C@H](NC(=O)c4cc5cc(C(=O)P(=O)(O)O)ccc5[nH]4)C(=O)N32)cc1 (stereo partly drawn) [I-59, (2-(((5S,8S,10aR)-8-(((S)-5-amino-1-((4-isopropylbenzyl)amino)-1,5-dioxopentan-2-yl)carbamoyl)-3-((1r,4R)-4-(2-(1-(2,6-dioxopiperidin-3-yl)-3-methyl-2-oxo-2,3-dihydro-1H-benzo[d]imidazol-5-yl)ethyl)cyclohexane-1-carbonyl)-6-oxodecahydropyrrolo[1,2-a][1,5]diazocin-5-yl)carbamoyl)-1H-indole-5-carbonyl)phosphonic acid]",DC50,[2],10 to 100 nM
